Measurements: publication PMC12775434, “Ultra-large virtual screening unveils potent agonists of the neuromodulatory orphan receptor GPR139” (Nature Communications, 2025)
Where “and” joins values, the source holds several entries; their conditions need not be identical. Equal entries are not always repeated.

Tests used:
[1] = target: T1, GPR139 (Gq activation) (Homo sapiens, UniProt Q6DWJ6); experiment: BRET G protein activation (dissociation) assay, Gq, HEK293A; type: cell-based; details: for G protein activation, Gq: individual replicates, listed as JNJ (S)
T1 construct: expressed in transfected cells; host or cells: HEK293A (transient, Lipofectamine 2000)
T1 sequence (Q6DWJ6 1-353): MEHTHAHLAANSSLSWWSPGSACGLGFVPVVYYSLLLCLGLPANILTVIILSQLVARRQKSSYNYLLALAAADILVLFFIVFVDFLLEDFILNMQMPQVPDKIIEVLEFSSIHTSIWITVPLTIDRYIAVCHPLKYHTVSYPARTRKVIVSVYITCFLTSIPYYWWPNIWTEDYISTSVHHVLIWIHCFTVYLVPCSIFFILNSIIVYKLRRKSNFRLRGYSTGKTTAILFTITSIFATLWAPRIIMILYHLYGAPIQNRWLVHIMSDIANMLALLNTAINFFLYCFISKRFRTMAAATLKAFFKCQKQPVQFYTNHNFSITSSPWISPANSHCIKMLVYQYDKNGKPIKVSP
Experimental: (§1) Primary screening and pharmacological characterization of compounds were performed using a CHO-K1 cell line that stably expresses human GPR139 (GPR139-CHOk1). The GPR139-CHOk1 cell line was kindly provided by H. Lundbeck A/S, Denmark[24]. GPR139-CHOk1 cells were grown in Ham’s F-12 Kaighn’s Modification Medium (ThermoFisher #21127030) supplemented with 10% dialyzed fetal bovine serum (US origin, ThermoFisher #26400044), 100 units/mL Penicillin-Streptomycin (ThermoFisher #15140122), and 1 mg/mL Geneticin (ThermoFisher #11811031). […] M1R-CHOk1 cells were purchased from The Missouri S&T cDNA Resource Center (#CEM100TN00). M1R-CHOk1 cells were grown in Ham’s F12 Medium (ThermoFisher #21765029) supplemented with 10% fetal bovine serum (Brazilian origin, ThermoFisher #10270106), 100 units/mL Penicillin-Streptomycin, and 0.25 mg/mL Geneticin. HEK293A cells transiently transfected with GPR139 were used for additional pharmacological assessment of signaling pathways activated by GPR139. HEK239A cells were generously provided by Dr. Asuka Inoue, Tohoku University, Japan. HEK293A cells were grown in Dulbecco’s Modified Eagle Medium (ThermoFisher #31966047) supplemented with 10% dialyzed fetal bovine serum and 100 units/mL Penicillin-Streptomycin. Cell lines were maintained at 37 °C in humidified incubator equilibrated with 5% CO2.
(§2) The G protein dissociation assay developed by the lab of Kirill A. Martemyanov was used to measure the coupling of multiple G proteins by GPR139[57]. The assay was performed as described previously with minor modifications. HEK293A cells were reverse transfected 20–24 h prior to assay. 50,000 cells were plated in each well of white opaque tissue culture treated 96-well plates (PerkinElmer #6005680) previously coated with poly-D-lysine. Transfection solutions were prepared as described, and 10 µL transfection solution was mixed with 100 µL cells in each well. The cells in each well were transfected with 18.9 ng GPR139, 6.3 ng Venus 1-155 Gγ2, 6.3 ng Venus 159-239 Gβ1, 6.3 ng masGRK3ct-NanoLuc and 12.6 ng Gαi2, 12.6 ng Gαi3, 12.6 ng GαoA, 12.6 ng Gαq or 25.2 ng Gα12 using 375 nL Lipofectamine 2000 Transfection Reagent. Transfections with Gαq and Gα12 contained 6.3 ng DNA of the active subunit S1 of pertussis toxin (PTX-S1). Each transfection was normalized to 150 ng total DNA with pcDNA3.1. The BRET biosensors were a kind gift from the Martemyanov lab. On the day of the experiment the cells were washed with HEPES buffer. Test compounds were diluted in HEPES buffer from DMSO stocks (final DMSO concentration of maximally 0.3%). NanoLuc Luciferase substrate NanoGlo—furimazine (Promega #N1120) was diluted 1000-fold (final) in HEPES buffer. NanoGlo and test compounds were added, and measurements were performed after 10 s for Gi3, 15 s for Gi2 and GoA, 20 s for Gq, and 90 s for G12—the timepoint where maximal signal occurred with each G protein, ensuring proper determination of the potency for the G protein coupling. Simultaneous dual emission was measured at 535 nm and 475 nm on LUMIstar Omega Microplate Reader (BMG Labtech) at room temperature. The BRET ratio of 535 nm/475 nm (Venus/NanoLuc), reflecting the dissociation of the G protein heterotrimer, was used to determine the G protein activation. The basal BRET ratio obtained with buffer condition was subtracted from the absolute BRET ratio at a given test compound concentration, and the responses were normalized to the one obtained with 10 µM JNJ-63533054 for the activation of Gi2.
(§3) Pharmacological data and statistical analyses were performed in GraphPad Prism v9–10 (Graphpad Software Inc., San Diego, CA), which are also specifically described in the figure and table legends. […]

[2] = target: T2, GPR139 (G12 activation) (Homo sapiens, UniProt Q6DWJ6); experiment: BRET G protein activation (dissociation) assay, G12, HEK293A; type: cell-based; details: for G protein activation, G12: individual replicates, listed as JNJ (S)
T2 construct: expressed in transfected cells; host or cells: HEK293A (transient, Lipofectamine 2000)
T2 sequence (Q6DWJ6 1-353): T1 sequence (Q6DWJ6 1-353)
Experimental: as §1, §2, §3

[3] = HEK293-A, normalized to JNJ-63533054 (JNJ(S))

Emax [1, 3]: 42 ± 3%
EC50 ([1]; Supplementary Table 6): 158 nM
Emax [2, 3]: 57 ± 1%
EC50 ([2]; Supplementary Table 6, read-out: pEC50 G12 (converted)): 25.1 nM
SMILES: CC(NC(=O)CNC(=O)c1cccc(Cl)c1)c1ccccc1 (centres unmarked) [JNJ-63533054, reference compound]
G protein activation, Gq ([1]; log [compound] M -4.5): 40 % of JNJ-63533054 at Gi2 and 47 % of JNJ-63533054 at Gi2 and 36 % of JNJ-63533054 at Gi2
G protein activation, Gq ([1]; log [compound] M -5.0): 40 % of JNJ-63533054 at Gi2 and 47 % of JNJ-63533054 at Gi2 and 39 % of JNJ-63533054 at Gi2
G protein activation, Gq ([1]; log [compound] M -5.5): 42 % of JNJ-63533054 at Gi2 and 44 % of JNJ-63533054 at Gi2 and 32 % of JNJ-63533054 at Gi2
G protein activation, Gq ([1]; log [compound] M -6.0): 39 % of JNJ-63533054 at Gi2 and 42 % of JNJ-63533054 at Gi2 and 31 % of JNJ-63533054 at Gi2
G protein activation, Gq ([1]; log [compound] M -6.5): 29 % of JNJ-63533054 at Gi2 and 32 % of JNJ-63533054 at Gi2 and 23 % of JNJ-63533054 at Gi2
G protein activation, Gq ([1]; log [compound] M -7.0): 17 % of JNJ-63533054 at Gi2 (2×) and 9 % of JNJ-63533054 at Gi2
G protein activation, Gq ([1]; log [compound] M -7.5): 5.47 % of JNJ-63533054 at Gi2 and 7 % of JNJ-63533054 at Gi2 and 1.27 % of JNJ-63533054 at Gi2
G protein activation, Gq ([1]; log [compound] M -8.0): 1.82 % of JNJ-63533054 at Gi2 and 0.745 % of JNJ-63533054 at Gi2 and -0.2 % of JNJ-63533054 at Gi2
G protein activation, G12 ([2]; log [compound] M -4.5): 60 % of JNJ-63533054 at Gi2 (2×) and 57 % of JNJ-63533054 at Gi2
G protein activation, G12 ([2]; log [compound] M -5.0): 55 % of JNJ-63533054 at Gi2 and 54 % of JNJ-63533054 at Gi2 and 57 % of JNJ-63533054 at Gi2
G protein activation, G12 ([2]; log [compound] M -5.5): 53 % of JNJ-63533054 at Gi2 and 55 % of JNJ-63533054 at Gi2 and 54 % of JNJ-63533054 at Gi2
G protein activation, G12 ([2]; log [compound] M -6.0): 50 % of JNJ-63533054 at Gi2 and 51 % of JNJ-63533054 at Gi2 and 53 % of JNJ-63533054 at Gi2
G protein activation, G12 ([2]; log [compound] M -6.5): 52 % of JNJ-63533054 at Gi2 and 46 % of JNJ-63533054 at Gi2 and 48 % of JNJ-63533054 at Gi2
G protein activation, G12 ([2]; log [compound] M -7.0): 47 % of JNJ-63533054 at Gi2 and 42 % of JNJ-63533054 at Gi2 and 38 % of JNJ-63533054 at Gi2
G protein activation, G12 ([2]; log [compound] M -7.5): 32 % of JNJ-63533054 at Gi2 and 33 % of JNJ-63533054 at Gi2 and 26 % of JNJ-63533054 at Gi2
G protein activation, G12 ([2]; log [compound] M -8.0): 22 % of JNJ-63533054 at Gi2 and 21 % of JNJ-63533054 at Gi2 and 16 % of JNJ-63533054 at Gi2
